Measured values published in patent US20120232011A1, “Use of Rapamycin and Rapamycin Derivatives for the Treatment of Bone Loss” (priority 2003, published 2012).
Read-outs that look alike come from different tables or passages of the source.

Experiments:
[1] = tested on: Cdc2-related serine/threonine PFTAIREI; assay: Gene expression in human osteoclasts: PFTAIREI; format: cell-based; details: human osteoclasts after treatment
Experimental: (§1) A.3 Gene expression is analyzed according to a method known in the art, in human osteoclasts after treatment with rapamycin or a derivative thereof.

[2] = tested on: osteoclast-specific protease cathepsin K; assay: Gene expression in human osteoclasts: cathepsin K; format: cell-based; details: human osteoclasts after treatment
Experimental: as §1

[3] = tested on: bone-resorbing osteoclasts differentiated from non-adherent bone marrow mononuclear cells; assay: Mouse osteoclastogenesis assay (osteoclast formation and activity); format: cell-based
Experimental: Non-adherent bone marrow mononuclear cells from 5-week-old male mice cells are differentiated into bone-resorbing osteoclasts by treatment with a cytokine cocktail containing receptor activator of NF kappa B ligand (RANKL), macrophage-colony stimulating factor (M-CSF) and interleukin-1 (IL-1) alpha. Osteoclast formation is measured after 6 days by quantifying the number of tartrate-resistant acid phosphatase (TRAP)-positive multinucleated cells generated in plastic wells on a 48-well plate. Osteoclast activity is measured after 12 days by quantifying the area of resorbed dentine slices placed in wells on a 48-well plate. Treatment with rapamycin or the rapamycin derivative, e.g. Compound A, starts at the beginning of cell culture, together with the cytokine treatment.

[4] = tested on: mouse pre-osteoblastic cell line MC3T3-1b; assay: Osteoblast differentiation in MC3T3-1b cells (alkaline phosphatase staining); format: cell-based; details: MC3T3-1b cells with osteogenic stimulus (BMP-2, ascorbic acid, beta-glycerophosphate); read-out: Alkaline phosphatase (ALP) staining IC50
Experimental: Osteoblast differentiation is evaluated in mouse pre-osteoblastic cell line MC3T3-1b, stimulated to differentiate with osteogenic stimulus (a mixture of bone morphogenetic protein 2 (BMP-2), ascorbic acid and beta-glycerophosphate). Osteoplast activity is measured by quantifying culture area covered with alkaline phosphate-positive cells on a 48-well plate. Treatment with rapamycin or the rapamycin derivative, e.g. Compound A, starts at the beginning of cell culture, together with the osteogenic stimulus treatment.

[5] = tested on: bone-resorbing osteoclasts differentiated from peripheral blood mononuclear cells; assay: Human osteoclastogenesis assay; format: cell-based
Experimental: Peripheral blood mononuclear cells from healthy male donors are differentiated into bone-resorbing osteoclasts by treatment with a cytokine cocktail containing RANKL, M-CSF and transforming growth factor (TGF)-beta 1. Osteoclast formation is measured after 17 days by quantifying the number of TRAP-positive multinucleated cells generated in plastic wells on a 96-well plate. Osteoclast activity is measured after 17 days by quantifying the area of resorbed bone on bovine cortical bone slices placed in wells on a 96-well plate. Treatment with rapamycin or the rapamycin derivative, e.g. Compound A, starts at the beginning of cell culture, together with the cytokine treatment. Collagen fragments are measured by enzyme linked immunosorbent assay (ELISA).

[6] = tested on: cancellous bone loss after ovariectomy; assay: Ovariectomized rat model; format: in vivo
Experimental: Before operation, the tibial bone mass and geometry of the animals is measured at baseline by dual-energy x-ray absorptiometry (DEXA) and periphere quantitative computer tomography (pQCT). Following ovariectomy (OVX) or sham operation, skeletally mature rats are treated for 8 weeks daily with 0.15 mg/kg, 0.5 mg/kg, 1.5 mg/kg, or 3.0 mg/kg of rapamycin or a rapamycin derivative, e.g. Compound A, or vehicle alone by oral administration or once a week with 1.5 mg/kg or 5.0 mg/kg of rapamycin or a rapamycin derivative; e.g. Compound A. At the beginning of the treatment, animals receive a fluorochrome label, e.g. calcein (e.g. 30 mg/kg, subcutaneous (s.c.)). Changes in bone mass and geometry (pQCT, DEXA) are evaluated in vivo after 4 weeks of treatment and at 8 weeks before necropsy. Body weight is monitored weekly. The animals are administered two further fluorochrome labels for marking of bone mineralization prior to necropsy, e.g. alizarin e.g. 20 mg/kg, s.c., 10 days prior to necropsy, and calcein e.g. 30 mg/kg, s.c., 3 days prior to necropsy. Blood samples (500 μl blood) are taken in heparin before necropsy and frozen at −20° C. for analysis of calcium, phosphate, TRAP, ALP, and osteocalcin. DEXA measurements are carried out at necropsy on excised tibia, femur, and lumbar vertebrae.

- IC50 [4]: 13.5 ± 2.4 nM
SMILES: CO[C@H]1C[C@@H]2CC[C@@H](C)[C@@](O)(O2)C(=O)C(=O)N2CCCC[C@H]2C(=O)O[C@H]([C@H](C)C[C@@H]2CC[C@@H](OCCO)[C@H](OC)C2)CC(=O)[C@H](C)/C=C(\C)[C@@H](O)[C@@H](OC)C(=O)[C@H](C)C[C@H](C)/C=C/C=C/C=C/1C [Compound A, 40-O-(2-hydroxyethyl)-rapamycin]
- increase of PFTAIREI expression [1]: about 300%
- reduction of cathepsin K expression [2]: about 78%
- IC50 ([3]; TRAP-positive multinucleated cells after 6 days, read-out: osteoclast formation IC50): 10.5 ± 4.6 nM
- IC50 ([3]; area of resorbed dentine slices after 12 days, read-out: osteoclast activity IC50): 0.6 ± 0.3 nM
- IC50 ([5]; ELISA, read-out: Collagen fragment release IC50): 4 ± 0.5 nM
- IC50 ([5]; TRAP-positive multinucleated cells after 17 days, read-out: osteoclast formation IC50): 7.7 ± 1.1 nM
- IC50 ([5]; bovine cortical bone slices, 17 days, read-out: Resorbed area IC50): 3.4 ± 0.3 nM
- effect on trabecular number [6]: inhibits reduction of trabecular number
- inhibition of cancellous bone loss ([6]; 3 mg/kg/day, oral): 60%
